Assays:
[1] = system: polychromatic erythrocytes; settings: rats male and female, 20 mg/kg intraperitoneally
Procedure: To perform the micronucleus test (Schmid, 1976), different groups of rats (male and female; n=10) received three doses of CBD (500, 1000 and 2000 mg/kg) orally. The negative control group received placebo by gavage and the positive control was treated with cyclophosphamide monohydrate (20 mg/kg—Sigma-Aldrich) intraperitoneally. After 24 hours (cyclophosphamide) and 48 hours (CBD-SINT and vehicle) the end of treatments, the animals were euthanized by decapitation. The femurs were removed, the proximal epiphysis was removed to expose the medullary canal and, with the aid of a 13×4.5 mm needle and 3 mL NaCl solution (150 mM), the marrow was removed, washing the medullary canal with NaCl solution. The material was transferred to glass tubes and centrifuged at 1000 rpm/5 min. After centrifugation, the supernatant was discarded, and the deposit was resuspended with a 4% formaldehyde solution and slightly homogenized with the aid of a Pasteur pipette. A drop of this cell suspension was placed on a clean, dry slide, and then the smear was performed. The slides were dried at room temperature and, after 24 hours, stained with Leishman eosin-methylene blue and subjected to microscopic analysis. To determine the number of micronuclei, 2000 polychromatic erythrocytes were counted per animal (1000 in each slide) using an optical microscope, at 400× magnification. The analysis of the slides was blind and performed by a single evaluator.

[2] = system: DNA of male and female rats; settings: rats male and female, 20 mg/kg intraperitoneally, 24 hours, positive control
Procedure: The negative control group received placebo by gavage and the positive control was treated with cyclophosphamide monohydrate (20 mg/kg—Sigma-Aldrich) intraperitoneally.

O=P1(N(CCCl)CCCl)NCCCO1 (stereo not shown) [cyclophosphamide, cyclophosphamide monohydrate, reference compound]
average number of MNPCE ([1]; 24 hours, positive control (C+)): significant increase
ratio of polychromatic/normochromatic erythrocytes (PCE/NCE ratio) ([1]; positive control): significantly changed
increase in the frequency of damage [2]: approximately 100%
increase in the index of damage [2]: approximately 100%
